Data set [1] has as its system REC-1 (BTK C481S) cell xenograft. In words: Activity test in REC-1 (BTK C481S) cell xenograft model. Type of data set: in vivo, BALB/c-Nude mice. As to conditions: REC-1 (BTK C481S) xenograft; for Tumor weight: Mean ± SEM. Here is the method: REC-1 (BTK C481S) cell culture (culture conditions: RPMI1640 medium+10% FBS, 37° C., 5% CO2). The cells subcultured into the logarithmic growth phase were collected and transferred into a centrifuge tube, and centrifuged at 1300 rpm for 3 min. On the day of inoculation, the cell density was adjusted to 5*10^7 cells/mL.
Cell inoculation: The inoculation site was selected at the right shoulder blade of the experimental animal, and the inoculation density was 5*10^6 cells+matrix gel/200 μL/animal.
Experimental animals: BALB/c-Nude, female, 6-8 W.
Grouped administration: When the average tumor volume reached 80-120 mm^3, the animals were randomly grouped according to tumor volume, with the coefficient of variation (CV) of tumor volumes not exceeding ⅓ of the mean volume. The day of grouping was defined as D0, and the administration began on the day of grouping. The body weight of the mice was measured before administration, and the administration was based on the body weight on that day.
Experimental observation and data collection: After cell inoculation, the effect of the tumor on the normal behavior of the animals was routinely monitored every week. Specific contents include the activity, food and water intake, weight gain or loss, eyes, fur and other abnormalities of the experimental animals. After the start of administration, the mice were weighed and dosed daily, and tumor volume was measured twice a week. The tumor volume was calculated as follows: tumor volume (mm^3)=0.52×tumor long diameter (mm)×tumor short diameter (mm)^2. At the end of the experiment, the following indicators were analyzed: tumor growth curve, mouse body weight curve, tumor weight, uniform photography of the excised tumors arranged according to groups, and calculation of tumor volume inhibition rate (TGI).
TGITV (Relative tumor volume inhibition rate) calculation formula:
[formula] • Vnt: Tumor volume of the mouse numbered n on day t; • Vn0: Tumor volume of the mouse numbered n on day 0; • RTVn: Relative tumor volume of the mouse numbered n on day t; • mean RTVtreat: RTV mean of the administration group; • mean RTVvehicle: RTV mean of the Vehicle group; • The experimental results such as tumor volume and mouse body weight of each group of animals are expressed as mean±standard error of the mean (Mean±SEM). T test was used for comparison between the two groups. One-way ANOVA was used for comparisons among three or more groups.

Data set [2] can be described thus: PK test in mice. It is filed as in vivo. Here is the method:
Mice were weighed and dosed, and about 50 μL of whole blood was collected from the orbital venous plexus at 5 min, 0.25 h, 0.5 h, 1 h, 2 h, 4 h, 6 h, 8 h, and 24 h after administration, using EDTA-K2 as anticoagulant. The blood samples were centrifuged at 4000 rpm for 10 min at 4° C., and 20 μL of the supernatant plasma sample was taken into an EP tube and immediately stored in a −80° C. refrigerator until analysis. 10 μL of the plasma sample was transferred to a 96-well plate and 250 μL of acetonitrile (containing internal standard) was added to precipitate proteins. The samples were centrifuged at 4000 rpm/min for 20 min in a 4° C. centrifuge. The supernatant was transferred and injected into LC MS/MS to detect the drug concentration. The data were processed by Thermo LC Quan software, and the standard curve was established using the internal standard method, with the theoretical standard curve concentration as the abscissa and the peak area ratio as the ordinate (test compound peak area/internal standard peak area). Sample concentrations were calculated using the standard curve. The pharmacokinetic parameters were calculated using WinNonlin 8.2 software.

Data set [3] deals with mino cells. In words: Activity test in Mino cells (CCK8 proliferation inhibition). It is filed as cell-based. As to conditions: Homo sapiens, 72 h, 3 days, read-out: Cell inhibition IC50. Here is the method:
Cell culture: mino cells (culture conditions: RPMI1640 medium+15% FBS, 37° C., 5% CO2). Cell plating: The cells subcultured into the logarithmic growth phase were collected and transferred into a centrifuge tube, and centrifuged at 800 rpm for 5 min. The cells were resuspended in complete medium and counted. The cells were diluted and adjusted to a final concentration of 200000 cells/mL. The cells were then seeded into a 96-well plate with 100 μL per well. Cell administration: Each group of drug solutions was added into the 96-well plate, 100 μL per well, n=3 for each drug concentration. Meanwhile, negative wells (n=6) and blank wells (n=3) were set up. The 96-well plate was incubated in the incubator for further 3 days. CCK8 reagent was added to the 96-well plate, 20 μL per well, and then the plate was placed in the incubator for further 4 h. The absorbance of the solution was measured at a wavelength of 450 nm using an enzyme reader. The proliferation inhibition rate was calculated and the half inhibitory concentration IC50 value was calculated.

The subject of data set [4] is Mino cell xenograft. The data set can be described thus: Activity test in Mino cell xenograft model. It is filed as in vivo, NOD SCID mice. As to conditions: 30 mg/kg.

Turning to `COc1ccc(F)cc1C(=O)NCc1ccc(-c2nn(-c3ccc(N4CCN(CC5CCN(c6ccc(N7CCC(=O)NC7=O)c(C)c6)CC5)CC4)nc3)c3ncnc(N)c23)cc1` [Compound I-2, N-(4-(4-amino-1-(6-(4-((1-(4-(2,4-dioxotetrahydropyrimidin-1(2H)-yl)-3-methylphenyl)piperidin-4-yl)methyl)piperazin-1-yl)pyridin-3-yl)-1H-pyrazolo[3,4-d]pyrimidin-3-yl)benzyl)-5-fluoro-2-methoxybenzamide], in data set [1] (15 mg/kg), the “T/C (Tweight/Cweight)” value is on record as 11.93% and the Tumor weight was 0.345 ± 0.082 g. In addition, in data set [1] (30 mg/kg), the “T/C (Tweight/Cweight)” value was 12.76% and the Tumor weight is recorded as 0.369 ± 0.043 g. In data set [2] (PO 20 mg/kg vs IV 5 mg/kg), this compound displayed a Bioavialibility of 51.8%. In addition, in data set [2] (mouse, IV 5 mg/kg, plasma), the AUC(0-inf) worked out at 44.5 ± 4.61 µg·h/mL, the AUC(0-t) came to 42.8 ± 5.76 µg·h/mL, the MRT amounted to 5.25 ± 0.17 h and the half-life is 5.35 ± 1.61 h. For the same compound, in data set [2] (mouse, PO 20 mg/kg, plasma), the area under the curve AUC(0-inf) came to 92.2 ± 33.2 µg·h/mL, the area under the curve AUC(0-t) came out at 83.5 ± 22.2 µg·h/mL, the highest concentration (Cmax) was determined as 8.95 ± 0.339 µg/mL and the mean residence time (MRT) was 6.46 ± 1.4 h. In data set [2] (mouse, PO 20 mg/kg, plasma), this compound showed a half-life of 6.32 ± 3.49 h. In addition, the IC50 in data set [3] amounted to 0.014 µM. In addition, the “TGITV (Relative tumor volume inhibition rate)” value in data set [4] is 80.75%. This compound had a Tumor volume in data set [4] (end of experiment, Mean ± SD) of 955.81 ± 343.68 mm^3.

The AUC(0-inf) is total exposure, with the tail of the curve extrapolated. Higher therefore signals more exposure. Broadly, the AUC(0-t) is the area under the concentration-time curve up to a stated or last time point. A lower AUC(0-t) goes with less exposure. By MRT is commonly meant a mean duration of stay, worked out from the concentration-time curve. The half-life is the time needed for the level to fall by half in the phase considered. By Cmax is commonly meant the peak of the concentration-time curve. What is called IC50 is the concentration that gives 50% inhibition.
